This note sets out measurements from US7279582B2, “Retroviral protease inhibiting compounds” (priority 1995, dated 2007).

The structures appear in SMILES notation.

For one data set, the target named is HIV protease (Human immunodeficiency virus type 1 group M subtype B, UniProt P04585). The data set can be described thus: Fluorogenic assay for screening inhibitors of HIV protease. The class given is biochemical. As for the experimental part:
Fluorogenic Assay for Screening Inhibitors of HIV Protease
The inhibitory potency of the compound of the invention can be determined by the following method.
The compound of the invention is dissolved in DMSO and a small aliquot further diluted with DMSO to 100 times the final concentration desired for testing. The reaction is carried out in a 6×50 mm tube in a total volume of 300 microliters. The final concentrations of the components in the reaction buffer are: 125 mM sodium acetate, 1 M sodium chloride, 5 mM dithiothreitol, 0.5 mg/ml bovine serum albumin, 1.3 μM fluorogenic substrate, 2% (v/v) dimethylsulfoxide, pH 4.5. After addition of inhibitor, the reaction mixture is placed in the fluorometer cell holder and incubated at 30° C. for several minutes. The reaction is initiated by the addition of a small aliquot of cold HIV protease. The fluorescence intensity (excitation 340 nm, emmision 490 nM) is recorded as a function of time. The reaction rate is determined for the first six to eight minutes. The observed rate is directly proportional to the moles of substrate cleaved-per unit time. The percent inhibition is 100×(1−(rate in presence of inhibitor)/(rate in absence of inhibitor)).
Fluorogenic substrate: Dabcyl-Gaba-Ser-Gln-Asn-Tyr-Pro-lle-Val-Gln-EDANS wherein DABCYL=4-(4-dimethylamino-phenyl)azobenzoic acid, Gaba=γ-aminobutyric acid, and EDANS=5-((2-aminoethyl)amino)-naphthalene-1-sulfonic acid.

The test system of a further data set is HIVIIIB. The experiment in a line: Anti-HIV activity in MT4 cells infected with HIVIIIB (MTT readout). The note with it: 0% plasma, 5 days, n=4 duplicate determinations. The class given is cell-based. From the text:
(§1) The anti-HIV activity of the compound of the invention can be determined in MT4 cells according to the following procedure. MT4 cells were infected with cell-free supernatant of HIVIIIB (previously frozen with known 50% tissue culture infectious dose (TCID50) at 0.003 multiplicity of infection (MOI) for one hour. After one hour infection, cells were washed twice to remove residual viruses, resuspended in culture media and seeded into 96-well tissue culture plates at 1×10^4 cells per well with various half-log dilutions of compounds. Uninfected cells are included as toxicity and cell controls. RPMI 1640 media (Gibco) with 10% fetal bovine serum were used as culture media. Various concentrations of human serum (Sigma) 50%, 25% and 12.5% were added to culture media resulting in final concentration of 60%, 35% and 22.5% total serum. All assay plates were incubated in 37 deg. cent. incubator for 5 days. MTT (sigma, 5 mg/ml stock in PBS) was added to all wells at 25 ul per well, incubate for 4 hours. 20% SDS with 0.02 N HCI in water was added at 50 ul per well to lyse cells. Plates incubated overnight for complete lyses were read on a microtitre plate reader at 570/650 nm wavelengths to determine cell optical density (O.D.). Raw data were analysed for percent inhibition by the following formula: O.D. test well−O.D. virus control×100 O.D. cell control−O.D. virus control The 50% effective concentration (EC50) was calculated by the median effect equation (Chou, 1975, Proc. Int. Cong. Pharmacol. 6th p. 619) to determine the efficacy of compound. The 50% lethal concentration (LC50) was calculated using uninfected MT4 cells.
(§2) Under these conditions, the following data were obtained (n=4 duplicate determinations: […]

For another data set, the system named is uninfected MT4 cells. The format is cell-based. The conditions noted are these: n=4 duplicate determinations, read-out: LC50 (the source's name).
Excerpt: as §1, §2

The mark [1] stands for this setting: Inhibitor Concentration 0.5 nanomolar.

In general, IC50 refers to the concentration needed to halve the response being measured. Low values mean inhibition by little substance, high ones a need for much substance. In the case of `Cc1cccc(C)c1OCC(=O)N[C@@H](Cc1ccccc1)[C@@H](O)C[C@H](Cc1ccccc1)NC(=O)[C@H](C(C)C)N1CC=NNC1=O` [Example 30B, (2S,3S,5S)-2-(2,6-Dimethylphenoxyacetyl)amino-3-hydroxy-5[2S-(4-aza-4,5-dehydro-1-pyrimid-2-onyl)-3-methyl-butanoyl]amino-1,6-diphenylhexane], the “Percent Inhibition” value on HIV protease (setting [1]) was 91.0%. The same molecule returned an IC50 with HIVIIIB of 0.003 µM. Moreover, the CC50 in the data set on uninfected MT4 cells worked out at 18 µM.
For `Cc1cccc(C)c1OCC(=O)N[C@@H](Cc1ccccc1)[C@@H](O)C[C@H](Cc1ccccc1)NC(=O)[C@H](C(C)C)N1CCNC1=S` [Example 9B, (2S,3S,5S)-2-(2,6-Dimethylphenoxyacetyl)amino-3-hydroxy-5-(2S-(1-imidazolidin-2-thionyl)-3-methylbutanoyl)amino-1,6-diphenylhexane] the same measures were 62.6%, 0.272 µM and 19.3 µM.
Regarding `CC(C)(C)[C@@H](C(=O)N[C@@H](Cc1ccccc1)C[C@H](O)[C@H](Cc1ccccc1)NC(=O)OCc1cncs1)N1CCNC1=O` [Example 7B, (2S,3S,5S)-2-(N-((5-Thiazolyl)-methoxycarbonyl)amino)-3-hydroxy-5-(2S-(1-imidazolidin-2-onyl)-3,3-dimethylbutanoyl)amino-1,6-diphenylhexane], the “Percent Inhibition” value at HIV protease (setting [1]) is given as 67.1%. The same molecule returned an IC50 in the data set with HIVIIIB of 0.204 µM. For the same molecule, the CC50 in the data set on uninfected MT4 cells was more than 100 µM.
The corresponding values for `Cc1cc(F)cc(C)c1OCC(=O)N[C@@H](Cc1ccccc1)[C@@H](O)C[C@H](Cc1ccccc1)NC(=O)[C@H](C(C)C)N1CCNC1=O` [Example 12B, (2S,3S,5S)-2-(4-Fluoro-2,6-dimethylphenoxyacetyl)amino-3-hydroxy-5-(2S-(1-imidazolidin-2-onyl)-3-methyl-butanoyl)amino-1,6-diphenylhexane] are 76.8%, 0.093 µM and 19.1 µM.
For `Cc1cccc(C)c1OCC(=O)N[C@@H](Cc1ccccc1)[C@@H](O)C[C@H](Cc1ccccc1)NC(=O)[C@H](C(C)C)N1CCNC(=O)C1=O` [Example 29C, (2S,3S,5S)-2-(2,6-Dimethylphenoxyacetyl)amino-3-hydroxy-5-[2S-(1-piperazin-2,3-dionyl)-3-methylbutanoyl]amino-1,6-diphenylhexane] the same measures were 72.6%, 0.427 µM and 56 µM.
`Cc1cccc(C)c1CCC(=O)N[C@@H](Cc1ccccc1)[C@@H](O)C[C@H](Cc1ccccc1)NC(=O)[C@H](C(C)C)N1CCCNC1=O` [Example 20D, (2S,3S,5S)-2-(3-(2,6-Dimethylphenyl)propanoyl)amino-3-hydroxy-5-(2S-(1-tetrahydropyrimidin-2-onyl)-3-methyl-butanoyl)amino-1,6-diphenylhexane]: half-maximal inhibition with HIVIIIB (IC50) was put at 0.283 µM. Moreover, in the data set with uninfected MT4 cells, the CC50 worked out at 24.1 µM.
For `Cc1cccc(C)c1OCC(=O)N[C@@H](Cc1ccccc1)[C@@H](O)C[C@H](NC(=O)[C@H](C(C)C)N1CCCNC1=O)C(C)C` [Example 27D, (2S,3S,5S)-2-(2,6-Dimethylphenoxyacetyl)amino-3-hydroxy-5-[2S-(1-tetrahydro-pyrimid-2-onyl)-3-methylbutanoyl]amino-1-phenyl-6-methylheptane], the “Percent Inhibition” value on HIV protease (setting [1]) is 92.9%. The same molecule showed an IC50 in the data set on HIVIIIB of 0.03 µM. Also, the CC50 with uninfected MT4 cells came to 56.2 µM.
On to `Cc1cccc(C)c1OCC(=O)N[C@@H](Cc1ccccc1)[C@@H](O)C[C@H](Cc1ccccc1)NC(=O)[C@@H](N1CCNC1=O)C(C)(C)C` [Example 8, (2S,3S,5S)-2-(2,6-Dimethylphenoxyacetyl)amino-3-hydroxy-5-(2S-(1-imidazolidin-2-onyl)-3,3-dimethylbutanoyl)amino-1,6-diphenylhexane], for which, at HIV protease (setting [1]), the “Percent Inhibition” value is given as 55.6%. Moreover, inhibition in the data set on HIVIIIB was half-maximal at 0.019 µM (IC50). Also, the CC50 in the data set with uninfected MT4 cells came out at 17.8 µM.
The corresponding values for `Cc1cccc(C)c1/C=C/C(=O)N[C@@H](Cc1ccccc1)[C@@H](O)C[C@H](Cc1ccccc1)NC(=O)[C@H](C(C)C)N1CCCNC1=O` (relative stereo) [Example 19E] are 68.5%, 0.395 µM and 17.9 µM.
As for `Cc1cccc(C)c1OCC(=O)N[C@@H](Cc1ccccc1)[C@@H](O)C[C@H](Cc1ccccc1)NC(=O)[C@H](C(C)C)N1C(=O)CCC1=O` [Example 18C, (2S,3S,5S)-2-(2,6-Dimethylphenoxyacetyl)amino-3-hydroxy-5-(2S-(1-pyrrolidin-2,5-dionyl)-3-methyl-butanoyl)amino-1,6-diphenylhexane], the “Percent Inhibition” value at HIV protease (setting [1]) is given as 57.8%. For the same molecule, the IC50 with HIVIIIB is 0.329 µM. For the same molecule, in the data set with uninfected MT4 cells, the CC50 stood at 19.1 µM.
For `Cc1cccc(C)c1OCC(=O)N[C@@H](Cc1ccccc1)[C@@H](O)C[C@H](Cc1ccccc1)NC(=O)[C@H](C(C)C)N1CCNC1=O` [Example 1P, (2S,3S,5S)-2-(2,6-dimethylphenoxyacetyl)amino-3-hydroxy-5-[2S-(1-imidazolidin-2-onyl)-3-methyl-butanoyl]amino-1,6-diphenylhexane] the same measures were 92.6%, 0.01 µM and 41.3 µM.
Consider `CC(C)[C@@H](C(=O)N[C@@H](Cc1ccccc1)C[C@H](O)[C@H](Cc1ccccc1)NC(=O)OCc1cncs1)N1CCNC1=O` [Example 6F, (2S,3S,5S)-2-(N-((5-Thiazolyl)methoxycarbonyl)amino)-5-((2S-(1-imidazolidin-2-onyl)-3-methyl-butanoyl)-amino)-3-hydroxy-1,6-diphenylhexane], for which the “Percent Inhibition” value at HIV protease (setting [1]) was 61.4%. Moreover, in the data set on HIVIIIB, the IC50 was 0.193 µM. Further, the CC50 in the data set on uninfected MT4 cells was more than 100 µM.
The corresponding values for `Cc1cccc(C)c1OCC(=O)N[C@@H](Cc1ccccc1)[C@@H](O)C[C@H](Cc1ccccc1)NC(=O)[C@H](C(C)C)N1CCCNC1=O` [Example 2B, (2S,3S,5S)-2-(2,6-Dimethylphenoxyacetyl)amino-3-hydroxy-5-[2S-(1-tetrahydro-pyrimid-2-onyl)-3-methylbutanoyl]amino-1,6-diphenylhexane] are 93.2%, 0.016 µM and 17.8 µM.
As for `Cc1ccnc(C)c1OCC(=O)N[C@@H](Cc1ccccc1)[C@@H](O)C[C@H](Cc1ccccc1)NC(=O)[C@@H](N1CCNC1=O)C(C)(C)C` [Example 14D, (2S,3S,5S)-2-(2,4-Dimethyl-pyridin-3-oxy-acetyl)amino-3-hydroxy-5-(2S-(1-imidazolidin-2-onyl)-3,3-dimethylbutanoyl)amino-1,6-diphenylhexane], the “Percent Inhibition” value on HIV protease (setting [1]) worked out at 52.7%. In the data set on HIVIIIB, this molecule displayed an IC50 of 0.053 µM. Also, in the data set on uninfected MT4 cells, the CC50 is more than 100 µM.
Turning to `CC(C)[C@@H](C(=O)N[C@@H](Cc1ccccc1)C[C@H](O)[C@H](Cc1ccccc1)NC(=O)O[C@@H]1CCS(=O)(=O)[C@@H]1C(C)C)N1CCCNC1=O` (racemic) [Example 22E, (2S,3S,5S)-2-(cis(±)-1,1-Dioxo-2-isopropyl-3-tetrahydrothiophenoxy)amino-3-hydroxy-5-(2S-(1-tetrahydropyrimid-2-onyl)-3-methylbutanoyl)amino-1,6-diphenylhexane], the “Percent Inhibition” value at HIV protease (setting [1]) is 71.8%.
Take `Cc1ncnc(C)c1OCC(=O)N[C@@H](Cc1ccccc1)[C@@H](O)C[C@H](Cc1ccccc1)NC(=O)[C@H](C(C)C)N1CCNC1=O` [Example 13B, (2S,3S,5S)-2-(4,6-Dimethylpyrimidin-5-oxy-acetyl)amino-3-hydroxy-5-(2S-(1-imidazolidin-2-onyl)-3-methyl-butanoyl)amino-1,6-diphenylhexane]: on HIV protease (Inhibitor Concentration 1.0 nanomolar), the “Percent Inhibition” value was found to be 56.2%.
Regarding `Cc1cccc(C)c1OCC(=O)N[C@@H](Cc1ccccc1)[C@@H](O)C[C@H](Cc1ccccc1)NC(=O)[C@H](C(C)C)N1CCC(=O)NC1=O` [Example 23C, (2S,3S,5S)-2-(2,6-Dimethylphenoxyacetyl)amino-3-hydroxy-5-(2S-(1-dihydropyrimid-2,4-dionyl)-3-methyl-butanoyl)amino-1,6-diphenylhexane], at HIV protease (setting [1]), the “Percent Inhibition” value is on record as 86.0%.
